{
  "source": "patent US12077555B2",
  "about": "“STAT degraders and uses thereof” (Kymera Therapeutics, Inc., priority 2019, dated 2024)",
  "key": {"SU-DHL-1 cells": {"system": "SU-DHL-1 cells", "assay": "wash-out study in SU-DHL-1 cells", "format": "cell-based", "settings": "after 4 days", "procedure": "FIG. 10 depicts wash-out study results with I-103 at 24 hours (A) and 48 hours (B)."}, "DEL cells": {"system": "DEL cells", "assay": "CellTiter-Glo cell viability, DEL", "format": "cell-based"}, "KARPAS-299 cells": {"system": "KARPAS-299 cells", "assay": "CellTiter-Glo cell viability, KARPAS-299", "format": "cell-based"}, "SU-DHL-1 tumor cells": {"system": "SU-DHL-1 tumor cells", "assay": "Xenograph tumor study, SU-DHL-1", "format": "in vivo, NOD SCID mice", "settings": "for tumor volume, 5 days / tumor volume, 10 days / tumor volume, 15 days / tumor volume, 20 days: SUDHL-1 xenograph, 2.5-30 mg/kg, 2 days on/5 days off", "procedure": "(§1) Animals: 50 6-8 week old female NOD SCID mice weighing 18 to 20 grams. 25 mice were used in each study.\n(§2) Method for Tumor Inoculation: Each mouse was inoculated subcutaneously with SU-DHL-1 tumor cells (1×107+Matrigel) or SUP-M2 tumor cells (5×106+Matrigel) in 0.1 ml of RPMI1640 medium supplemented with 10% FBS, 100 U/ml penicillin and […] streptomycin for tumor development. Mice were then assigned to groups such that the mean tumor volume was the same for each treatment group and time point. […] Vehicle was 25% HP-β-CD in water adjusted to pH 7.4.\n(§3) Measurement Parameters: Study animals were monitored not only for tumor growth but also behavior such as mobility, food and water consumption (by cage side checking only), body weight (BW), eye/hair matting and any other abnormal effect. Any mortality and/or abnormal clinical signs was recorded. Sponsor was notified immediately if abnormal clinical signs, or if tolerability issues were observed. Body weights of all animals were measured and recorded twice per week. The measurement of tumor size was conducted twice weekly with a caliper and recorded. The tumor volume (mm3) was estimated using the formula: TV=a×b2/2, where “a” and “b” are long and short diameters of a tumor, respectively."}, "SUP-M2 tumor cells": {"system": "SUP-M2 tumor cells", "assay": "Xenograph tumor study, SUP-M2", "format": "in vivo, NOD SCID mice", "settings": "ALK+ALCL xenograph model SUP-M2, intermittent dosing, FIG. 20", "procedure": "as §1, §2, §3"}, "STAT3": {"target": "STAT3 (Homo sapiens, UniProt P40763)", "sequence (P40763 whole entry)": "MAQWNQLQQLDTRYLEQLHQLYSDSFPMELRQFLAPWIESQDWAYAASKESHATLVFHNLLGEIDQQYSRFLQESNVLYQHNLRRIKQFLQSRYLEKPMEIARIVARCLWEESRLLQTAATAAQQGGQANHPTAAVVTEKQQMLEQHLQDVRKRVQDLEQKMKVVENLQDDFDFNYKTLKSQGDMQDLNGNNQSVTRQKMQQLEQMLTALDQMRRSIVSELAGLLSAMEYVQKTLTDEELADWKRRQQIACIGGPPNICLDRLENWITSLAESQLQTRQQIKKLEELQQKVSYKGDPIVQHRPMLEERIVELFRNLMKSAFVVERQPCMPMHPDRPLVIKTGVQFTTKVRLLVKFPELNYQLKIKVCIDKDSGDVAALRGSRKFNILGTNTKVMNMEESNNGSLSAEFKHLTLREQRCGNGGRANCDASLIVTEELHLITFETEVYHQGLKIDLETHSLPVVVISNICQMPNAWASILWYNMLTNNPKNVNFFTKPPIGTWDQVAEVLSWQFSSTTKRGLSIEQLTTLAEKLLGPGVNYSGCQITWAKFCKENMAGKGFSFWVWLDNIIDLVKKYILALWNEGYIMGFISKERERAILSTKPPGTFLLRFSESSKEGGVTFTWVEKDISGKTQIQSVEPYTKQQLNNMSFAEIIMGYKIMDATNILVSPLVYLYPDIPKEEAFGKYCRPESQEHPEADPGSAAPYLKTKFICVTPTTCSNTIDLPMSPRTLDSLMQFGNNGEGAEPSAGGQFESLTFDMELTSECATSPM", "assay": "STAT3 HiBiT degradation assay in transfected A549 cells", "format": "cell-based", "design": "expressed in transfected cells; host or cells: A549", "settings": "A549, 24 h; read-out: STAT3 HiBiT A549 degradation 24 h: Average external-Abs DC50", "how_it_was_run": "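Degradation read as HiBiT-tagged STAT3 luminescence (Nano-Glo lytic reagent, 10 min, room temperature) following 24 h compound treatment of transfected A549 cells at 3-fold, 10 points. Percent remaining signal computed against controls and fitted with a four-parameter logistic; DC50 reported as letter bins (A <0.01 to D >1.0 µM).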"}},
  "data": [
    {"smiles": "Cn1c(=O)n(C2CCC(=O)NC2=O)c2ccc(C[C@H]3CC[C@@H](CC(=O)N4CC[C@H]5CC[C@@H](C(=O)N[C@@H](CCC(N)=O)C(=O)NC(c6ccccc6)c6ccccc6)N5C(=O)[C@@H](NC(=O)c5cc6cc(C(=O)P(=O)(O)O)ccc6[nH]5)C4)CC3)cc21", "note": "(stereo partly drawn) [Compound I-174, 2-[[(5S,8S,10aR)-8-[[(1S)-3-carbamoyl-1-(diphenylmethylcarbamoyl)propyl]carbamoyl]-6-oxo-3-[2-[(1s,4s)-4-[[1-(2,6-dioxopiperidin-3-yl)-3-methyl-2-oxo-1,3-benzodiazol-5-yl]methyl]cyclohexyl]acetyl]-octahydropyrrolo[1,2-a][1,5]diazocin-5-yl]carbamoyl]-1H-indole-5-carbonylphosphonic acid]", "values": [
      {"measurement": "growth and cell death after wash-out", "setting": "SU-DHL-1 cells; 24 hours wash-out", "result": "strong growth inhibition and potential cell death"},
      {"measurement": "growth and cell death after wash-out", "setting": "SU-DHL-1 cells; 48 hours wash-out", "result": "complete growth inhibition and cell death"},
      {"measurement": "IC50", "setting": "DEL cells; 96 h, ALCL (ALK+), Day 4, read-out: CTG, IC50 μM, Day 4", "result": 0.016, "unit": "µM"},
      {"measurement": "CTG (% Max inh), Day 4", "setting": "DEL cells; ALCL (ALK+), Day 4", "result": "(95) %"},
      {"measurement": "cell proliferation", "setting": "DEL cells; FIG. 16", "result": "inhibit"},
      {"measurement": "IC50", "setting": "KARPAS-299 cells; Homo sapiens, 96 h, KARPAS-299, ALCL (ALK+), Day 4, read-out: CTG, IC50 μM, Day 4", "result": 0.084, "unit": "µM"},
      {"measurement": "CTG (% Max inh), Day 4", "setting": "KARPAS-299 cells; KARPAS-299, ALCL (ALK+), Day 4", "result": "(90) %"},
      {"measurement": "cell proliferation", "setting": "KARPAS-299 cells; KARPAS-299, FIG. 16", "result": "inhibit"},
      {"measurement": "tumor regression", "setting": "SU-DHL-1 tumor cells; ALK+ALCL xenograph model SU-DHL-1, intermittent dosing, FIG. 19", "result": "achieves tumor regression"},
      {"measurement": "tumor volume, 5 days", "setting": "SU-DHL-1 tumor cells; IP", "result": "A (A<500 mm^3)"},
      {"measurement": "tumor volume, 10 days", "setting": "SU-DHL-1 tumor cells; IP", "result": "A (A<500 mm^3)"},
      {"measurement": "tumor volume, 15 days", "setting": "SU-DHL-1 tumor cells; IP", "result": "A (A<500 mm^3)"},
      {"measurement": "tumor volume, 20 days", "setting": "SU-DHL-1 tumor cells; IP", "result": "A (A<500 mm^3)"},
      {"measurement": "tumor volume, 5 days", "setting": "SU-DHL-1 tumor cells; IV", "result": "A (A<500 mm^3)"},
      {"measurement": "tumor volume, 10 days", "setting": "SU-DHL-1 tumor cells; IV", "result": "A (A<500 mm^3)"},
      {"measurement": "tumor volume, 15 days", "setting": "SU-DHL-1 tumor cells; IV", "result": "A (A<500 mm^3)"},
      {"measurement": "tumor volume, 20 days", "setting": "SU-DHL-1 tumor cells; IV", "result": "A (A<500 mm^3)"},
      {"measurement": "tumor regression", "setting": "SUP-M2 tumor cells", "result": "achieves tumor regression"},
      {"measurement": "DC50", "setting": "STAT3", "result": "10 to 100", "unit": "nM"}
    ]}
  ]
}
